The source made the active and inactive calls.
Experiments:
Procathepsin L = Procathepsin L (Homo sapiens, UniProt P07711)
Aspartyl aminopeptidase = Aspartyl aminopeptidase (Plasmodium falciparum 3D7, UniProt Q8I2J3)
[1] = molecular target: T1, Dual specificity protein phosphatase 3 (Homo sapiens, UniProt P51452); experiment: MOA VHR1 Fluorescent secondary assay for identification of redox-state modulating compounds. [Related pubchem assays (depositor defined):AID1654, AID1661, AID1878, AID1957]
T1 sequence (P51452 whole entry): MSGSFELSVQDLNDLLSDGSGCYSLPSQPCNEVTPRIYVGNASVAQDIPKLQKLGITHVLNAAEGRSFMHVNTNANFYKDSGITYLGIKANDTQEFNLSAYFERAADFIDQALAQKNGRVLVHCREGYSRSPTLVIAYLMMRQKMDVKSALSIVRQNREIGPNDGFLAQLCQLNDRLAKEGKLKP

[2] = molecular target: T2, Rac GTPase-activating protein 1 (Homo sapiens, UniProt Q9H0H5); experiment: blockers of MgcRacGAP-driven Rac1 GTP hydrolysis – biochemical, ADP Hunter fluorescence, primary and confirmatory, confirmation (AID 624330); assay type: functional
T2 sequence (Q9H0H5 whole entry): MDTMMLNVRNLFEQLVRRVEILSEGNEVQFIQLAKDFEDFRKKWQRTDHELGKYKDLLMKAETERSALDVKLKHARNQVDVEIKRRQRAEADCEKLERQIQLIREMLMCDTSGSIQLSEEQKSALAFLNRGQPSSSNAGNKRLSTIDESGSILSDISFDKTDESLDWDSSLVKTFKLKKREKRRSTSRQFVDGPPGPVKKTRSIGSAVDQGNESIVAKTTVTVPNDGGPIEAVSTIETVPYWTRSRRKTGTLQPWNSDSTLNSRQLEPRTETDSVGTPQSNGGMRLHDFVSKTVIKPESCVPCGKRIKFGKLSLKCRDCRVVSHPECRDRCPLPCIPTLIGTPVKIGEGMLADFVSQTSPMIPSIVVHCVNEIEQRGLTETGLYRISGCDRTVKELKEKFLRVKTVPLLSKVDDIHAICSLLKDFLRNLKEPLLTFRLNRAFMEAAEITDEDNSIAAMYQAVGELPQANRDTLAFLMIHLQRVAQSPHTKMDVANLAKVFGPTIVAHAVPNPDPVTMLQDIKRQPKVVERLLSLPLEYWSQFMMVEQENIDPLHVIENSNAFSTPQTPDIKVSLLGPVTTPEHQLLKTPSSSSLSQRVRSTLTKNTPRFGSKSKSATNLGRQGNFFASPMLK

[3] = molecular target: T1, Dual specificity protein phosphatase 3; experiment: SAR VHR1 absorbance Assay for In Vitro dose response studies. [Related pubchem assays (depositor defined):AID1654, AID1661, AID1878, AID1992, AID2004]
[4] = molecular target: T1, Dual specificity protein phosphatase 3; experiment: SAR VHR1 Fluorescent Assay for In Vitro dose response studies. [Related pubchem assays (depositor defined):AID1654, AID1661, AID1878, AID1992, AID2004, AID2070, AID2085]; assay type: functional
[5] = molecular target: T3, Tyrosine-protein phosphatase non-receptor type 7 (Homo sapiens, UniProt P35236); experiment: redox-active compounds inhibiting HePTP phosphatase – biochemical, fluorescence, mechanism study (AID 2068); assay type: functional
T3 sequence (P35236 whole entry): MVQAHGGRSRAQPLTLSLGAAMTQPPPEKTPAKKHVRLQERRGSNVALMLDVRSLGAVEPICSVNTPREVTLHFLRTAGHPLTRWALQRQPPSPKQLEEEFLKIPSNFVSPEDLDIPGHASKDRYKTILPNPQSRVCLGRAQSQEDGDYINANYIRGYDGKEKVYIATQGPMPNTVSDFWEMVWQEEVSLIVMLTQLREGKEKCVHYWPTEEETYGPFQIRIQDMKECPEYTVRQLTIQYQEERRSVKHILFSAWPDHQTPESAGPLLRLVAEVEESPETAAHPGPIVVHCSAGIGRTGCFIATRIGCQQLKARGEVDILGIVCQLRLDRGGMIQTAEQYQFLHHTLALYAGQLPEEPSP

[6] = molecular target: Dual specificity protein phosphatase 6 (Rattus norvegicus, UniProt Q64346); assay type: functional;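 also: confirmatory in vitro dose-response testing of MKP-3 inhibition; recombinant His-tagged MKP-3 made in E. coli BL21 with OMFP substrate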
Chain of Dual specificity protein phosphatase 6 (Q64346 whole entry): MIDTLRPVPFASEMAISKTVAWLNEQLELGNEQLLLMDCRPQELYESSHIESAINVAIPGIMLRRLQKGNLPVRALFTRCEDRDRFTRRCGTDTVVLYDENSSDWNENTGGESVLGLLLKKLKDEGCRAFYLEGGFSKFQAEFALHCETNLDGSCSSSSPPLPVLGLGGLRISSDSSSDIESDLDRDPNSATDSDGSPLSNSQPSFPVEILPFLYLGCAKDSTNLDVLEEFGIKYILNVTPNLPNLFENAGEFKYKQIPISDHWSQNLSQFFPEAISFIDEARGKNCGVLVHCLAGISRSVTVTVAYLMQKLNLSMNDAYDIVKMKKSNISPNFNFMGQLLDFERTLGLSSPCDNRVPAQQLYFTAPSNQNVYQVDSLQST

Hexokinase HKDC1 = molecular target: T4, Hexokinase HKDC1 (Homo sapiens, UniProt Q2TB90); experiment: inhibition of HKDC1 glucose phosphorylation – biochemical, W721R variant, dose response (AID 504729); assay type: functional
T4 sequence (Q2TB90 whole entry): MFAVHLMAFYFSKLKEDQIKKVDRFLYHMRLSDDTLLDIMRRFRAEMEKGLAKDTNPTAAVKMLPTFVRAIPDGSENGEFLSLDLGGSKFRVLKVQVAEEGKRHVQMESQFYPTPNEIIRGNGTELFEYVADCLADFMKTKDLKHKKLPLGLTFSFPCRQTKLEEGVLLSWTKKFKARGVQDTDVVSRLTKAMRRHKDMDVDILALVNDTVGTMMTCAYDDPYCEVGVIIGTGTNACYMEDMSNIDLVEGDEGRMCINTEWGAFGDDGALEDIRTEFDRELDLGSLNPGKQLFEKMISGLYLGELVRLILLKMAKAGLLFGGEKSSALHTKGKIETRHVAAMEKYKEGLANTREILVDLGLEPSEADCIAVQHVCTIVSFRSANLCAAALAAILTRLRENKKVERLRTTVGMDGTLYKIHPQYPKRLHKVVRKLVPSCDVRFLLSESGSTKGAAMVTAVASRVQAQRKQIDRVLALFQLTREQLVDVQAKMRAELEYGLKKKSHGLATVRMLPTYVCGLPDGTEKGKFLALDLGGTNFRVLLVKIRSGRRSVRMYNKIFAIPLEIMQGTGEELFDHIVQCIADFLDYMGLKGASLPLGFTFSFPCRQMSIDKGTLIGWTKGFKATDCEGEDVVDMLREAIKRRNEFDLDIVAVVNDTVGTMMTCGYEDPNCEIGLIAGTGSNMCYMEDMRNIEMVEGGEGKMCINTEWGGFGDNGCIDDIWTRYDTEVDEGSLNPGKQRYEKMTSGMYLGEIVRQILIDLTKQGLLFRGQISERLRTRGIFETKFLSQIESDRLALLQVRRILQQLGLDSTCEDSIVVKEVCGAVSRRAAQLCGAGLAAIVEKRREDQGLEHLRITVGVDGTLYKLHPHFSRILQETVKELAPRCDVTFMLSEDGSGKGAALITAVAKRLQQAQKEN

[7] = alpha-synuclein stem-loop translation blockers – luminescence, H4 neuroglioblastoma cells, dose confirmation, confirmation (AID 2454); assay type: functional, cell-based;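 also: H4 neuroglioblastoma cells carrying an alpha-synuclein 5'UTR luciferase reporter; potency for inhibition of the luciferase signal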
[8] = luciferase reporter signal suppression in cells – H4 neuroglioma cells, luminescence, dose response (AID 1990); assay type: functional, cell-based
[9] = Luminescence-based counterscreen assay for KLF5 inhibitors: dose response cell-based high throughput screening assay to identify cytotoxic compounds using the IEC-6 intestinal epithelial cell line. [Related pubchem assays: 1700 (Primary screen.), 1834 (Confirmation screen.), 1858 (Summary AID.), 1905 (Counterscreen.)]; assay type: functional
[10] = molecular target: Heat shock protein HSP 90-alpha (Homo sapiens, UniProt P07900); experiment: Luminescence-based dose response biochemical high throughput screening assay for inhibitors of the Heat Shock Protein 90 (HSP90). [Related pubchem assays: 1831 (Summary AID.), 1846 (Confirmation screen.), 1789 (Primary screen.)]
[11] = Luminescence Cell-Based Dose Response HTS to Identify Inhibitors of 5'UTR Stem-Loop Driven Prion Protein mRNA Translation in H4 Neuroglioblastoma Cells. [Related pubchem assays: 1827 (Project Summary), 1813 (Primary HTS)]; assay type: functional
[12] = alpha-synuclein stem-loop luciferase translation blockers – H4 neuroglioma cells, luminescence, confirmation (AID 1988); assay type: functional, cell-based
[13] = molecular target: T5, Histone-lysine N-methyltransferase NSD2 (Homo sapiens, UniProt O96028); assay type: biochemical
T5 sequence (O96028 whole entry): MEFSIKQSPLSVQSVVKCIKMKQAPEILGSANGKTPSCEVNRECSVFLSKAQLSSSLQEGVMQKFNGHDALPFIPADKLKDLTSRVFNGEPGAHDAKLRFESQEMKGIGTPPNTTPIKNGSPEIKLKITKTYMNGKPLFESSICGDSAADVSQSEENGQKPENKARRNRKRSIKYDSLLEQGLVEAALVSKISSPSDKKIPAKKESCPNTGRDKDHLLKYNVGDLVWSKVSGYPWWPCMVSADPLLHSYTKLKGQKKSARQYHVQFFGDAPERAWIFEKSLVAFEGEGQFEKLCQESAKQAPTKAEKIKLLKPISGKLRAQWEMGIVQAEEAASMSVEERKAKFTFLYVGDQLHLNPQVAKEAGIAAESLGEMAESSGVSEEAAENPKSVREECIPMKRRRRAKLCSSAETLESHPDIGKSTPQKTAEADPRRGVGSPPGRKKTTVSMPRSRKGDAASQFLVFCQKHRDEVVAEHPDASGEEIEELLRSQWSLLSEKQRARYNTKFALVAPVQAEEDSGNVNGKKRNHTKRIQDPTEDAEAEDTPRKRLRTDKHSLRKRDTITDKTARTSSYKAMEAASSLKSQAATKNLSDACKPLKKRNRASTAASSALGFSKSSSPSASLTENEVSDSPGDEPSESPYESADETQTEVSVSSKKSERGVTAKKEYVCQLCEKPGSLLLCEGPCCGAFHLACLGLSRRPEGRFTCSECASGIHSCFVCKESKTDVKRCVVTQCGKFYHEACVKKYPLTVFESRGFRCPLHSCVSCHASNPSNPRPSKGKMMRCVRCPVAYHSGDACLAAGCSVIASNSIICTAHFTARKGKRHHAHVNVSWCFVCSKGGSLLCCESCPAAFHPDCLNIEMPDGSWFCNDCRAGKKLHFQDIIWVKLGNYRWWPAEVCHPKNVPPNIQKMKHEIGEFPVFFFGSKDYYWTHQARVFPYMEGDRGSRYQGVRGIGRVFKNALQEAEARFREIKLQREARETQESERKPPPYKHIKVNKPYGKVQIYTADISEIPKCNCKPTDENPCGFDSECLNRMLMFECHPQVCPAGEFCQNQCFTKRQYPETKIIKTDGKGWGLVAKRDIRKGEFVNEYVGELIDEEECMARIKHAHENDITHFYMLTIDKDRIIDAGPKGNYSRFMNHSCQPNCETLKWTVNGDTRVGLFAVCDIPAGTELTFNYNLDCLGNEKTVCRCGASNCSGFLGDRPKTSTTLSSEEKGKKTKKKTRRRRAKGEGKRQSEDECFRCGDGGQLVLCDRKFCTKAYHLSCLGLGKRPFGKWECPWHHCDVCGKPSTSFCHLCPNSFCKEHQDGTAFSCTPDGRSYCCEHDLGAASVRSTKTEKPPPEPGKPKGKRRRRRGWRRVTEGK

[14] = luciferase reporter signal reduction – luminescence, H4-C neuroglioblastoma cells, dose response (AID 2458); assay type: functional, cell-based;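 also: H4 neuroglioblastoma cells stably carrying a luciferase reporter gene fusion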
[15] = HEK-293T viability loss after treatment – luminescence, T-cell screen hits, cytotoxicity control for TCR NF-kB inhibitor project, dose response (AID 489026); assay type: functional, cell-based;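 also: cells exposed to compound about 14 hours before the viability readout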
cells = assay type: functional, cell-based
[16] = molecular target: DNA dC->dU-editing enzyme APOBEC-3G (Homo sapiens, UniProt Q9HC16); assay type: functional;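 also: Dose-response counterscreen measuring inhibition of APOBEC3G DNA deaminase activity, run while confirming APOBEC3A inhibitors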
Chain of DNA dC->dU-editing enzyme APOBEC-3G (Q9HC16 whole entry): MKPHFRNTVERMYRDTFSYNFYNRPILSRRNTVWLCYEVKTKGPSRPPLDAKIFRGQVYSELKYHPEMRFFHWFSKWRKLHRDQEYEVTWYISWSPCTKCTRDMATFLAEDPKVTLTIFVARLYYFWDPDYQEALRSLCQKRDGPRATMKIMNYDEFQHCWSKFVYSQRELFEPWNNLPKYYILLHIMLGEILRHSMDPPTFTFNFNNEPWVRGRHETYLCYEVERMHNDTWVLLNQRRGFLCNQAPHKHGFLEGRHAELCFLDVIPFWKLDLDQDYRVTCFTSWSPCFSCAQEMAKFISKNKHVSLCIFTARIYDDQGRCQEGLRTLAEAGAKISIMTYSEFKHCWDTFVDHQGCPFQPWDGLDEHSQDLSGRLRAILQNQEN

[17] = molecular target: Polyadenylate-binding protein 1 (Homo sapiens, UniProt P11940); experiment: blockers of PABP interaction with poly(A) – biochemical, fluorescence polarization, […] (AID 2014)
Chain of Polyadenylate-binding protein 1 (P11940 whole entry): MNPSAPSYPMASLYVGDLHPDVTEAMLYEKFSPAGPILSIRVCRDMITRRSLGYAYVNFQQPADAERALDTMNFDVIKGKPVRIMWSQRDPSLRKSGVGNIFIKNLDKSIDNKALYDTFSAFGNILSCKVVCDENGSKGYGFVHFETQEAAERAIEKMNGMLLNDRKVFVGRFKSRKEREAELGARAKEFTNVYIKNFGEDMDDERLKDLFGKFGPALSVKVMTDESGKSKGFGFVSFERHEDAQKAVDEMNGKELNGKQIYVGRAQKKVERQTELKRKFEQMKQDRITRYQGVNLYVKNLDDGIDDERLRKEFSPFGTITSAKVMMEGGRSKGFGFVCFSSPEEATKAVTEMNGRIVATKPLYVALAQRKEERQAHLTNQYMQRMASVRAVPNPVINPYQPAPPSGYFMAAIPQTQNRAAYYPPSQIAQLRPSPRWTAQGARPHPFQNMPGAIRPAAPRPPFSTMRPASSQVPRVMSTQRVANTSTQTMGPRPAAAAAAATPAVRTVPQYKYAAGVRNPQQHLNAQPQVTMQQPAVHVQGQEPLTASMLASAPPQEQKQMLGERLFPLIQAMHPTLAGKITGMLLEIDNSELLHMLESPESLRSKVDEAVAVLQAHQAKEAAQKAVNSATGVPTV

[18] = molecular target: DNA dC->dU-editing enzyme APOBEC-3A (Homo sapiens, UniProt P31941); experiment: Dose Response confirmation of small molecule APOBEC3A DNA Deaminase Inhibitors via a fluorescence-based single-stranded DNA deaminase assay. [Related pubchem assays (depositor defined):AID493011, AID493024]; assay type: functional
Chain of DNA dC->dU-editing enzyme APOBEC-3A (P31941 whole entry): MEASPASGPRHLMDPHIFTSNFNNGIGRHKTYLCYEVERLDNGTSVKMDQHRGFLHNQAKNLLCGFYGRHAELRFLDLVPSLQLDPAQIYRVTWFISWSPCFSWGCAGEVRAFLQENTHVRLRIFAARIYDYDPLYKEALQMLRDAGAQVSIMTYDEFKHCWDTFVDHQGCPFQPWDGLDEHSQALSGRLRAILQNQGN

[19] = molecular target: Eukaryotic translation initiation factor 4H (Homo sapiens, UniProt Q15056); experiment: eIF4H binding inhibition – biochemical, uHTS, fluorescence polarization, translation initiation inhibitor project, primary screen (AID 2012)
Oxytocin receptor = Oxytocin receptor (Homo sapiens, UniProt P30559); experiment: Fluorescence-based cell-based high throughput dose response assay for agonists of the Oxytocin Receptor (OXTR). [Related pubchem assays: 2435 (Primary screen (OXTR agonists in singlicate)), 434991 (Counterscreen (V1R agonists in triplicate)), 2482 (Summary (OXTR agonists)), 434963 (Confirmation screen (OXTR agonists in triplicate))]; assay type: functional
Chain of Oxytocin receptor (P30559 whole entry): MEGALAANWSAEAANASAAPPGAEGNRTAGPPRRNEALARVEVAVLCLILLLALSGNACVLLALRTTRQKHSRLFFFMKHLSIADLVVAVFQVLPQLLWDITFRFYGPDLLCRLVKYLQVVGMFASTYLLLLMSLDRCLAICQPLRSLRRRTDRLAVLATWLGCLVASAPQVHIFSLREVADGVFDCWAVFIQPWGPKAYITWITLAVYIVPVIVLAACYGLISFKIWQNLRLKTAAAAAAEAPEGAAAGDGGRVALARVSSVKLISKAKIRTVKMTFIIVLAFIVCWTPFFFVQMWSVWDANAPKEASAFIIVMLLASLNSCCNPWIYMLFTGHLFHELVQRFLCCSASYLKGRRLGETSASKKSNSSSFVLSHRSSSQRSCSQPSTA

Vasopressin V1a receptor = Vasopressin V1a receptor (Homo sapiens, UniProt P37288); experiment: Counterscreen for Oxytocin Receptor (OXTR) agonists: Fluorescence-based cell-based high throughput dose response assay to identify agonists of the vasopressin 1 receptor (V1R). [Related pubchem assays: 2435 (Primary screen (OXTR agonists in singlicate)), 434991 (Counterscreen (V1R agonists in triplicate)), 2482 (Summary (OXTR agonists)) …; assay type: functional
Chain of Vasopressin V1a receptor (P37288 whole entry): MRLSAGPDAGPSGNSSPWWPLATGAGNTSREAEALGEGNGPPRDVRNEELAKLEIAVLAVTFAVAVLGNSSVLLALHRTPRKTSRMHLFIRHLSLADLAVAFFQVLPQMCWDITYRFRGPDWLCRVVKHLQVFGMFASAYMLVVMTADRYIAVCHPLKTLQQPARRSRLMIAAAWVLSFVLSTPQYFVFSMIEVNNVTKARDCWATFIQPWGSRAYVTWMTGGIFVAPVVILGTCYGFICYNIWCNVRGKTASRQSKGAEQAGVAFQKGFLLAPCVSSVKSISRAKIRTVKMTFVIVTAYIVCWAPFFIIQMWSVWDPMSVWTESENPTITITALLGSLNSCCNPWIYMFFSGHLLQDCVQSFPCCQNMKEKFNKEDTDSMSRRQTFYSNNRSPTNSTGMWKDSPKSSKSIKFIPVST

Cytochrome P450 2C9 = Cytochrome P450 2C9 (Homo sapiens, UniProt P11712); settings: Potency
Chain of Cytochrome P450 2C9 (P11712 whole entry): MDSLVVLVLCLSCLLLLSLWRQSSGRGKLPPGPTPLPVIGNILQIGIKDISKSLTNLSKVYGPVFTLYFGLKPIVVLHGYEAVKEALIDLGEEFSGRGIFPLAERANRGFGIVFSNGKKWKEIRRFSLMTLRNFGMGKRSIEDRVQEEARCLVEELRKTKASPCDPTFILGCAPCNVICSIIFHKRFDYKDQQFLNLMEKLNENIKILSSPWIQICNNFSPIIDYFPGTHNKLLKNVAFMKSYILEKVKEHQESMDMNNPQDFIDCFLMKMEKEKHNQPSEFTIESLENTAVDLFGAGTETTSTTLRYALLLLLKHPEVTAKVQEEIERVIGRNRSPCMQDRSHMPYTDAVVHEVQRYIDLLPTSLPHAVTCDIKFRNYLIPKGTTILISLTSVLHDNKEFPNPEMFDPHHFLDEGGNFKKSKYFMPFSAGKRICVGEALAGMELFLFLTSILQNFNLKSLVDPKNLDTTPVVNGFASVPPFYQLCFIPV

Chain of Procathepsin L (P07711 whole entry): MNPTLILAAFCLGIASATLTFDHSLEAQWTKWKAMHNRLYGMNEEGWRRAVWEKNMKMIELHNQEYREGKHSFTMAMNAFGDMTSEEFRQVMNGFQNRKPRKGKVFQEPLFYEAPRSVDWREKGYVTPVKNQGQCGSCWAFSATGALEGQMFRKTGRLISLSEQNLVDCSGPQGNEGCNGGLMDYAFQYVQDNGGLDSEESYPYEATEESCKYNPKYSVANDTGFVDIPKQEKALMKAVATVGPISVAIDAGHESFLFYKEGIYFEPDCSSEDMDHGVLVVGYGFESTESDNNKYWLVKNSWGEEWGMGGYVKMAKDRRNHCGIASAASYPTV
Chain of Aspartyl aminopeptidase (Q8I2J3 whole entry): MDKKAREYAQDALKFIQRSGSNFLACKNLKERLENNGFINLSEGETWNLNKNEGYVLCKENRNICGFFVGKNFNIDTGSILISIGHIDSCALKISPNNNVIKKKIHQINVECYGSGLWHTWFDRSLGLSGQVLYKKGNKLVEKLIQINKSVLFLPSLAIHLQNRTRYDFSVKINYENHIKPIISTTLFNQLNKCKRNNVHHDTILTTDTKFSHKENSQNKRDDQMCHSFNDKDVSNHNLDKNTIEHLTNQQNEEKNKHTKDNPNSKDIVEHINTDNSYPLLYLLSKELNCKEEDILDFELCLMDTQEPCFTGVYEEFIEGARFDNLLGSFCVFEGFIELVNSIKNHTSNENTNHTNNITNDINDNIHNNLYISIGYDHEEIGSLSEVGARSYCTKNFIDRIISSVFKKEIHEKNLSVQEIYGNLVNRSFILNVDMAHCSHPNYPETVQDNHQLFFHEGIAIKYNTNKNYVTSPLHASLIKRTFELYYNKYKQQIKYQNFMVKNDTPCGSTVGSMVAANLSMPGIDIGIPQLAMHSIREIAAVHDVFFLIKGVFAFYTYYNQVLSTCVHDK

CCC(C)c1ccc(O)c(N)c1 (stereo unspecified)
IC50 (Procathepsin L): > 59.6 µM (not active)
IC50 (Aspartyl aminopeptidase): 2.25 µM (active)

COc1cc(C(S)=NC2CCCCC2)ccc1O
IC50 [1]: 3.4 µM (active)
IC50 [2]: 32.6 µM (active)
IC50 [3]: > 100 µM (inactive)
IC50 [4]: 22.5 µM (active)
IC50 [5]: 2.82 µM (active)
IC50 [6]: > 100 µM (inactive)

COC1(NS(=O)(=O)c2ccc(Br)cc2)C(C)=CC(=O)C=C1C
IC50 (Hexokinase HKDC1): > 80 µM (inactive)

COc1cc(/C=C/[N+](=O)[O-])ccc1OCc1cccc(C(=O)O)c1
EC50 [7]: 0.937 µM (active)
EC50 [8]: 2.43 µM (inconclusive)
IC50 [9]: > 39.8 µM (not active)
IC50 [10]: 7.32 µM (active)
EC50 [11]: < 0.1 µM (active)
EC50 [12]: 0.161 µM (active)
AC50 [13]: 11.9 µM (active)
EC50 [14]: 0.99 µM (active)
IC50 [15]: > 80 µM (inactive)
EC50 (cells): > 12 µM (inconclusive)

Cn1c(SCC(=O)N2CCOCC2)nnc1-c1cccc(NC(=O)c2ccccc2)c1
IC50 [16]: 3.37 µM (active)
IC50 [17]: 2.81 µM (active)
IC50 [18]: 2.62 µM (active)
IC50 [19]: > 100 µM (inactive)

COc1ccc(C2SCCN2C(S)=Nc2cccc(Cl)c2)cc1 (stereo unspecified)
EC50 (Oxytocin receptor): > 29.9 µM (not active)
EC50 (Vasopressin V1a receptor): > 29.9 µM (not active)

c1csc(CNc2ncnc3ccc(-c4ccc5c(c4)OCO5)cc23)c1
AC50 (Cytochrome P450 2C9): 0.794 µM (inconclusive)
